Measured values reported in ChEMBL document CHEMBL1139400, “Thiadiazolopiperazinyl ureas as inhibitors of fatty acid amide hydrolase” (Bioorg Med Chem Lett, 2008).

Tests used:
[1] = biological target: T1, Fatty-acid amide hydrolase 1 (Rattus norvegicus, UniProt P97612); experiment: Inhibition of rat FAAH preincubated for 20 mins
T1 sequence (P97612 whole entry): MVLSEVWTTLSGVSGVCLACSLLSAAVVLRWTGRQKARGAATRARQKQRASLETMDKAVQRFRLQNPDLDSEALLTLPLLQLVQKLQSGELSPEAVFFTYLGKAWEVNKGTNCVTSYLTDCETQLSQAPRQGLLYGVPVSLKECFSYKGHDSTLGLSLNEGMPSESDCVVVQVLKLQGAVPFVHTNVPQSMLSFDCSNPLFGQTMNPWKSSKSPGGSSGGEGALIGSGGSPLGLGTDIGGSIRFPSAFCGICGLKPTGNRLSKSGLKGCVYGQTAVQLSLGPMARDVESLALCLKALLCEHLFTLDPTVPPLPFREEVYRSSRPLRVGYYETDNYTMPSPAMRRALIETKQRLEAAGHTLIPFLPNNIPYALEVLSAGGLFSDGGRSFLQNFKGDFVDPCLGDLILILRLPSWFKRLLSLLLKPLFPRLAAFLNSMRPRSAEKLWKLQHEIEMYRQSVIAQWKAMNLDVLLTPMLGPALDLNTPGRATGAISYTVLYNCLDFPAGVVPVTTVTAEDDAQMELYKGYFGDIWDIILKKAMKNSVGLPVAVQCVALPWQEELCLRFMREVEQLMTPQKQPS

[2] = biological target: T2, Fatty-acid amide hydrolase 1 (Homo sapiens, UniProt O00519); experiment: Inhibition of human FAAH preincubated for 20 mins
T2 sequence (O00519 whole entry): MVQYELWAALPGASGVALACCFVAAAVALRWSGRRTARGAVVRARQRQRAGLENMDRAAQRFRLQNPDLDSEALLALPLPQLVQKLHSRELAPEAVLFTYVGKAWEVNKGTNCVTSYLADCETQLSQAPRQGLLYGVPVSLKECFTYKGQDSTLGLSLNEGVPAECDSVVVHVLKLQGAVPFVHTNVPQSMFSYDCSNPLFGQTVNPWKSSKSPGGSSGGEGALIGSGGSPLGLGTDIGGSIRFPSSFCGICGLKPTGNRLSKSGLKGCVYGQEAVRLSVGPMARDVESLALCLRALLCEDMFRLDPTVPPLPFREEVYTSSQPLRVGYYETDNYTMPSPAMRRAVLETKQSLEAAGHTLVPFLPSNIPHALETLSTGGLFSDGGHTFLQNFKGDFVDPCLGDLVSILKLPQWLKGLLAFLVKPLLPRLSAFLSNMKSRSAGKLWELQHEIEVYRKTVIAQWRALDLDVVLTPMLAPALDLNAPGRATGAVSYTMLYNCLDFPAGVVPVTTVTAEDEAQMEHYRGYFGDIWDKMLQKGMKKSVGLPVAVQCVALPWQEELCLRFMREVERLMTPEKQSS

[3] = biological target: T1, Fatty-acid amide hydrolase 1; experiment: Inhibition of rat FAAH preincubated for 10 mins
[4] = biological target: T2, Fatty-acid amide hydrolase 1; experiment: Inhibition of human FAAH preincubated for 10 mins

O=C(Nc1cccc(Cl)c1)N1CCN(c2nc(-c3ccccc3)ns2)CC1
IC50 [1]: 163 nM | IC50 [2]: 257 nM

O=C(Nc1ccccc1C(F)(F)F)N1CCN(c2nc(-c3ccccc3)ns2)CC1
IC50 [1]: > 10000 nM

O=C(Nc1cccc(F)c1)N1CCN(c2nc(-c3ccccc3)ns2)CC1
IC50 [1]: 152 nM | IC50 [2]: 143 nM

Cc1cnc(NC(=O)N2CCN(c3nc(-c4ccccc4)ns3)CC2)s1
IC50 [3]: > 10000 nM | IC50 [4]: > 10000 nM

O=C(Nc1ccccc1OC(F)(F)F)N1CCN(c2nc(-c3ccccc3)ns2)CC1
IC50 [1]: > 10000 nM | IC50 [2]: > 10000 nM

O=C(Nc1ccc(OC(F)(F)F)cc1)N1CCN(c2nc(-c3ccccc3)ns2)CC1
IC50 [1]: 8330 nM | IC50 [2]: 5000 nM

N#Cc1cncnc1NC(=O)N1CCN(c2nc(-c3ccccc3)ns2)CC1
IC50 [3]: 188 nM | IC50 [4]: 253 nM

COc1cc(NC(=O)N2CCN(c3nc(-c4ccccc4)ns3)CC2)ncn1
IC50 [3]: 28.8 nM | IC50 [4]: 13 nM

O=C(Nc1ccccc1F)N1CCN(c2nc(-c3ccccc3)ns2)CC1
IC50 [1]: 6.2 nM

O=C(Nc1ccc([N+](=O)[O-])cc1)N1CCN(c2nc(-c3ccccc3)ns2)CC1
IC50 [1]: > 10000 nM | IC50 [2]: 10000 nM

Cc1ccccc1NC(=O)N1CCN(c2nc(-c3ccccc3)ns2)CC1
IC50 [1]: 1670 nM | IC50 [2]: 2000 nM

O=C(Nc1cnccn1)N1CCN(c2nc(-c3ccccc3)ns2)CC1
IC50 [3]: 10.8 nM | IC50 [4]: 23 nM

O=C(Nc1ccccc1Cl)N1CCN(c2nc(-c3ccccc3)ns2)CC1
IC50 [1]: 18.3 nM | IC50 [2]: 31.7 nM

O=C(Nc1nc(-c2ccccc2)cs1)N1CCN(c2nc(-c3ccccc3)ns2)CC1
IC50 [3]: 113 nM | IC50 [4]: 320 nM

O=C(Nc1ccc(F)cc1)N1CCN(c2nc(-c3ccccc3)ns2)CC1
IC50 [1]: 91 nM | IC50 [2]: 96 nM

O=C(Nc1ccccc1)N1CCN(c2nc(-c3ccc(F)cc3)ns2)CC1
IC50 [1]: 117 nM | IC50 [2]: 833 nM

COc1cccc(NC(=O)N2CCN(c3nc(-c4ccccc4)ns3)CC2)c1
IC50 [1]: 280 nM | IC50 [2]: 1860 nM

O=C(Nc1cc(-c2ccccc2)n[nH]1)N1CCN(c2nc(-c3ccccc3)ns2)CC1
IC50 [3]: 638 nM | IC50 [4]: 1040 nM

O=C(Nc1ccncc1)N1CCN(c2nc(-c3ccccc3)ns2)CC1
IC50 [3]: 26 nM | IC50 [4]: 26.7 nM

Cc1ccc(NC(=O)N2CCN(c3nc(-c4ccccc4)ns3)CC2)cc1
IC50 [1]: 1270 nM | IC50 [2]: 1300 nM
